Data set [1] has as its system monkey cryopreserved hepatocytes. Nature of the data set: In vitro metabolite profiling in monkey cryopreserved hepatocytes. The settings on record: monkey hepatocytes. In kind it is in vitro ADME. The protocol:
Rat, monkey, or human cryopreserved hepatocytes in Leivovitz L‐15 medium at 0.5 million cells/mL were incubated at 37°C for 1 hour with [^14C]MGS0274 besylate at 10 μmol/L. The reaction was terminated by adding 10% w/v trichloroacetic acid solution, and the resultant mixture was centrifuged. Aliquots of the supernatant were subjected to bioanalysis using high‐performance liquid chromatography equipped with radiochemical flow detection (RI‐HPLC) (see Table S1‐B). Aliquots of the supernatant from unlabeled incubation samples and authentic standards were also injected into a liquid chromatography‐mass spectrometry (LC‐MS) system under the same chromatographic conditions to compare their chromatographic retention times and mass spectral data (see Table S1‐B).

Data set [2] concerns conditioned avoidance responses. As to conditions: rat; cited from earlier work.
A short description of data set [3]: Prediction of human pharmacokinetic parameters by single-species allometric scaling. The protocol:
The prediction of CLtotal, Vdss, and t1/2 in humans was performed using single‐species allometric scaling methods 14 with the pharmacokinetic parameters obtained from the intravenous administration of MGS0008 to rats and monkeys, unbound fraction of MGS0008 in rat, monkey, and human plasma (1.0), and body weight of rats (0.3 kg), monkeys (5 kg), and humans (60 kg).

The nature of data set [4]: Pharmacokinetics of MGS0008 in monkeys (intravenous or oral). The settings on record: fed male monkeys; for AUC(0-t): read-out: AUC0–24h. The format is in vivo, cynomolgus monkey. The protocol:
The pharmacokinetic profiles of MGS0008 and MGS0274 were investigated in fasted male Wistar rats (n = 3) and fed male cynomolgus monkeys (n = 4). Monkeys had been given 60 g of a primate diet (PS‐A; Oriental Yeast, Tokyo, Japan) one hour before administration. For intravenous administration, MGS0008 was dissolved in saline (pH7.4) and administered to rats (3 mg/kg) and monkeys (1 mg/kg). Blood samples were collected from the tail vein (rats) or the forelimb cephalic vein (monkeys) into tubes containing EDTA‐2K at 5, 15, and 30 minutes and at 1, 2, 4, 8, and 24 hours postdose for both species, and an additional sample was collected at 12 hours postdose for monkeys. Urine samples were collected until 48 hours at 24‐hour intervals (rats) or at 0‐ to 8‐hour, 8‐ to 24‐hour, and 24‐ to 48‐hour intervals (monkeys). The plasma or urine samples was mixed with acetonitrile/methanol (9:1, v/v) containing [^13C2 ^15N]MGS0008 and centrifuged. Aliquots of the supernatant were subjected to bioanalysis using LC‐MS/MS (see Table S1‐E). For oral administration, MGS0008 was dissolved in distilled water (rats) or 0.5% w/v methylcellulose 400 (monkeys) and administered to rats (3 mg/kg) and monkeys (1 mg/kg). MGS0274 besylate was suspended in 0.5% w/v methylcellulose 400 containing 0.1% v/v Tween 80 and administered to monkeys at a dose of 2.89 mg/kg (1‐mg equivalent of MGS0008/kg). Blood samples were collected from the tail vein (rats) or the forelimb cephalic vein (monkeys) into tubes containing EDTA‐2K at 30 minutes, 1, 1.5, 2, 4, 6, 8, and 24 hours postdose for rats, and 30 minutes, 1, 2, 4, 8, 12, and 24 hours postdose for monkeys. The plasma samples were mixed with acetonitrile/methanol (9:1, v/v) containing internal standards ([^13C2 ^15N]MGS0008 and MGS0039) and centrifuged. Aliquots of the supernatant were subjected to bioanalysis using LC‐MS/MS (see Tables S1‐E and F). In the study examining the tissue distribution of MGS0008 in rats (3 mg/kg), blood samples were collected from the posterior vena cava into tubes containing EDTA‐2K under isoflurane anesthesia at 1.5, 4, 6, or 24 hours postdose. Then, the animals were euthanized by exsanguination from the abdominal aorta; cerebrospinal fluid (CSF) samples were drawn from the spinal cord space in each animal. The plasma or CSF was mixed with acetonitrile/methanol (9:1, v/v) containing [^13C2 ^15N]MGS0008 and centrifuged. Aliquots of the supernatant were subjected to bioanalysis using LC‐MS/MS (see Table S1‐E).
The plasma concentration‐time profiles of MGS0008 and MGS0274 were analyzed using a non‐compartmental analysis method with pharmacokinetic analysis software Phoenix® WinNonlin® 6.2 or later (Certara, Princeton, NJ).

[5] abbreviates: single-species allometric scaling from the monkey data.
Setting [6] is: single-species allometric scaling from the rat data.
Setting [7] is: cynomolgus monkey, MGS0008 intravenous 1 mg/kg, plasma.
Where [8] appears, read: cynomolgus monkey, MGS0008 oral 1 mg/kg, plasma.

“And” between values parts separate entries of the source, which are not always exact repeats. Equal values may be shown once. Read-outs that look alike come from different tables or passages of the source.

One may read the bioavailability as the share of a dose that reaches the circulation, judged against a reference dose that is usually intravenous. A word on the half-life: it is how long it takes for the measured level to halve. One may read the Cmax as the maximum level reached in the sampled fluid or tissue. One may read the Tmax as the time from dosing to the highest level. As for `N[C@]1(C(=O)O)[C@H]2[C@@H](C[C@@H]1F)[C@@H]2C(=O)O` [MGS0008, (1S,2S,3S,5R,6S)‐2‐amino‐3‐fluorobicyclo[3.1.0]hexane‐2,6‐dicarboxylic acid], in data set [1], the “further metabolism of MGS0008 in hepatocytes” value is “no metabolites”. Moreover, in data set [2], the conditioned avoidance responses result is “reduced”. For the same compound, in data set [3] (setting [5]), the “predicted CLtotal in humans” value was 1.16 mL/min/kg, the “predicted Vdss in humans” value was 0.181 L/kg and the “predicted t1/2 in humans” value was 1.8 h. For the same compound, in data set [3] (setting [6]), the “predicted CLtotal in humans” value is 2.43 mL/min/kg, the “predicted Vdss in humans” value is 0.545 L/kg and the “predicted t1/2 in humans” value was 2.6 h. Moreover, the concentration at 24 h in data set [4] (cynomolgus monkey, plasma, MGS0008 intravenous 1 mg/kg, below lower limit of quantification) is less than 3 ng/mL. Further, the clearance in data set [4] (cynomolgus monkey, plasma, MGS0008 intravenous 1 mg/kg, mean ± SD (n = 4), read-out: CLtotal (converted)) was 2.15 mL/min/kg. Besides, the Vd in data set [4] (cynomolgus monkey, plasma, MGS0008 intravenous 1 mg/kg, mean ± SD (n = 4), read-out: Vdss) was 0.181 ± 0.0214 L/kg. The bioavailability in data set [4] (cynomolgus monkey, plasma, MGS0008 oral 1 mg/kg, AUC0-24h oral / AUC0-24h intravenous × 100) is 3.8 ± 2.8%. In addition, in data set [4] (cynomolgus monkey, urine and plasma, MGS0008 intravenous 1 mg/kg), the CL renal was 2.07 mL/min/kg. In addition, in data set [4] (setting [7]), the half-life was 1.48 ± 0.0435 h and the AUC(0-t) is 7830 ± 776 ng·h/mL. Also, in data set [4] (setting [8]), the Cmax is 20.5 ± 11.5 ng/mL, the Tmax was 9 ± 10 h and the AUC(0-t) amounted to 281 ± 177 ng·h/mL. Also, the vomiting entry in data set [4] (MGS0008 intravenous 1 mg/kg) is given as “three of the four monkeys experienced transient vomiting”. Moreover, the “Urinary excretion (unchanged form)” value in data set [4] (MGS0008 intravenous 1 mg/kg, within 48 hours, % of administered dose, 1 mg/kg) is 96.4% and 96.4 ± 7.51%.

The values above are taken from paper PMC6743422, “Preclinical disposition of MGS0274 besylate, a prodrug of a potent group II metabotropic glutamate receptor agonist MGS0008 for the treatment of schizophrenia” (Pharmacology Research & Perspectives, 2019).
